Measured values taken from PubChem BioAssay (NCI).
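Briefly, cells in 96-well plates were exposed to five compound concentrations for 48 h, and endpoints were estimated by linear interpolation. The concentration for 50% growth inhibition is given as GI50. Definition used: TGI = concentration required for complete inhibition of growth.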

What was measured:
Experiment in all cases: inhibition of tumour cell growth, NCI panel, 48 h
786-0 renal = system: 786-0 renal
A498 renal = system: A498 renal
A549 NSCLC = system: A549 NSCLC
ACHN renal = system: ACHN renal
BT-549 breast = system: BT-549 breast
CAKI-1 renal = system: CAKI-1 renal
CCRF-CEM leukemia = system: CCRF-CEM leukemia
COLO 205 colon = system: COLO 205 colon
DU-145 prostate = system: DU-145 prostate
EKVX NSCLC = system: EKVX NSCLC
HCC-2998 colon = system: HCC-2998 colon
HCT-116 colon = system: HCT-116 colon
HCT-15 colon = system: HCT-15 colon
HL-60(TB) leukemia = system: HL-60(TB) leukemia
HOP-62 NSCLC = system: HOP-62 NSCLC
HOP-92 NSCLC = system: HOP-92 NSCLC
HS 578T breast = system: HS 578T breast
HT29 colon = system: HT29 colon
IGROV1 ovarian = system: IGROV1 ovarian
K-562 leukemia = system: K-562 leukemia
KM12 colon = system: KM12 colon
M14 melanoma = system: M14 melanoma
MALME-3M melanoma = system: MALME-3M melanoma
MCF7 breast = system: MCF7 breast
MDA-MB-231 breast = system: MDA-MB-231 breast
MDA-MB-435 = system: MDA-MB-435
MOLT-4 leukemia = system: MOLT-4 leukemia
NCI-H226 lung = system: NCI-H226 lung
NCI-H23 lung = system: NCI-H23 lung
NCI-H460 lung = system: NCI-H460 lung
NCI-H522 lung = system: NCI-H522 lung
NCI/ADR-RES ovarian = system: NCI/ADR-RES ovarian
OVCAR-4 ovarian = system: OVCAR-4 ovarian
OVCAR-5 ovarian = system: OVCAR-5 ovarian
OVCAR-8 ovarian = system: OVCAR-8 ovarian
PC-3 prostate = system: PC-3 prostate
RPMI-8226 leukemia = system: RPMI-8226 leukemia
RXF 393 renal = system: RXF 393 renal
SF-268 CNS = system: SF-268 CNS
SF-295 CNS = system: SF-295 CNS
SF-539 CNS = system: SF-539 CNS
SK-MEL-2 melanoma = system: SK-MEL-2 melanoma
SK-MEL-28 melanoma = system: SK-MEL-28 melanoma
SK-MEL-5 melanoma = system: SK-MEL-5 melanoma
SK-OV-3 ovarian = system: SK-OV-3 ovarian
SN12C renal = system: SN12C renal
SNB-19 CNS = system: SNB-19 CNS
SNB-75 CNS = system: SNB-75 CNS
SR leukemia = system: SR leukemia
SW-620 colon = system: SW-620 colon
T-47D breast = system: T-47D breast
TK-10 renal = system: TK-10 renal
U251 CNS = system: U251 CNS
UACC-257 melanoma = system: UACC-257 melanoma
UACC-62 melanoma = system: UACC-62 melanoma
UO-31 renal = system: UO-31 renal

## O=C(Nc1cccc(C(F)(F)F)c1)c1cc(-c2ccc(F)cc2F)ccc1O
786-0 renal
  GI50: 3.27 µM
  TGI: 12 µM
A498 renal
  GI50: 0.923 µM
  TGI: 3.21 µM
A549 NSCLC
  GI50: 3.26 µM
  TGI: > 100 µM
ACHN renal
  GI50: 2.76 µM
  TGI: 8.67 µM
BT-549 breast
  GI50: 2.13 µM
  TGI: 7.24 µM
CAKI-1 renal
  GI50: 1.79 µM
  TGI: 5.69 µM
CCRF-CEM leukemia
  GI50: 2.97 µM
  TGI: 48.6 µM
COLO 205 colon
  GI50: 3.22 µM
  TGI: 10.2 µM
DU-145 prostate
  GI50: 3.55 µM
  TGI: > 100 µM
EKVX NSCLC
  GI50: 2.28 µM
  TGI: 8.98 µM
HCC-2998 colon
  GI50: 3.07 µM
  TGI: 13.2 µM
HCT-116 colon
  GI50: 1.89 µM
  TGI: 4.98 µM
HCT-15 colon
  GI50: 2.21 µM
  TGI: 6.99 µM
HL-60(TB) leukemia
  GI50: 2.06 µM
  TGI: 4.97 µM
HOP-62 NSCLC
  GI50: 2.93 µM
  TGI: 9.31 µM
HOP-92 NSCLC
  GI50: 0.824 µM
  TGI: 4.28 µM
HS 578T breast
  GI50: 2.47 µM
  TGI: 9.63 µM
HT29 colon
  GI50: 3.27 µM
  TGI: 16.9 µM
IGROV1 ovarian
  GI50: 2.82 µM
  TGI: 17 µM
K-562 leukemia
  GI50: 2.23 µM
  TGI: > 100 µM
KM12 colon
  GI50: 2.44 µM
  TGI: 6.12 µM
M14 melanoma
  GI50: 3.02 µM
  TGI: 10.5 µM
MALME-3M melanoma
  GI50: 1.77 µM
  TGI: 4.65 µM
MCF7 breast
  GI50: 2.18 µM
  TGI: 9.29 µM
MDA-MB-231 breast
  GI50: 2.01 µM
  TGI: 5.17 µM
MDA-MB-435
  GI50: 2.5 µM
  TGI: 7.11 µM
MOLT-4 leukemia
  GI50: 2.13 µM
  TGI: 5.58 µM
NCI-H226 lung
  GI50: 2.01 µM
  TGI: 5.34 µM
NCI-H23 lung
  GI50: 1.89 µM
  TGI: 5.58 µM
NCI-H460 lung
  GI50: 2.67 µM
  TGI: 13.3 µM
NCI-H522 lung
  GI50: 1.32 µM
  TGI: 9.58 µM
NCI/ADR-RES ovarian
  GI50: 2.57 µM
  TGI: 8.63 µM
OVCAR-4 ovarian
  GI50: 3.11 µM
  TGI: 95.7 µM
OVCAR-5 ovarian
  GI50: 3.41 µM
  TGI: 26.4 µM
OVCAR-8 ovarian
  GI50: 2.92 µM
  TGI: > 100 µM
PC-3 prostate
  GI50: 2.89 µM
  TGI: 15.1 µM
RPMI-8226 leukemia
  GI50: 1.44 µM
  TGI: 5.28 µM
RXF 393 renal
  GI50: 2.06 µM
  TGI: 6.22 µM
SF-268 CNS
  GI50: 2.67 µM
  TGI: 16.7 µM
SF-295 CNS
  GI50: 1.75 µM
  TGI: 3.57 µM
SF-539 CNS
  GI50: 3.05 µM
  TGI: 11 µM
SK-MEL-2 melanoma
  GI50: 1.46 µM
  TGI: 4.95 µM
SK-MEL-28 melanoma
  GI50: 2.17 µM
  TGI: 7.58 µM
SK-MEL-5 melanoma
  GI50: 1.25 µM
  TGI: 2.86 µM
SK-OV-3 ovarian
  GI50: 2.43 µM
  TGI: 8.62 µM
SN12C renal
  GI50: 1.99 µM
  TGI: 7.61 µM
SNB-19 CNS
  GI50: 3.08 µM
  TGI: 73.5 µM
SNB-75 CNS
  GI50: 1.52 µM
  TGI: 4.25 µM
SR leukemia
  GI50: 2.76 µM
  TGI: 14 µM
SW-620 colon
  GI50: 3.61 µM
  TGI: 14.5 µM
T-47D breast
  GI50: 2.2 µM
  TGI: 8.64 µM
TK-10 renal
  GI50: 4.55 µM
  TGI: 30.5 µM
U251 CNS
  GI50: 2.99 µM
  TGI: 17.5 µM
UACC-257 melanoma
  GI50: 1.5 µM
  TGI: 6.97 µM
UACC-62 melanoma
  GI50: 1.16 µM
  TGI: 4.22 µM
UO-31 renal
  GI50: 2.46 µM
  TGI: 10.6 µM
